Measured values published in patent US20260285853A1, “COMPOUNDS AND METHODS FOR MODULATING SPLICING” (REMIX THERAPEUTICS INC., priority 2023, published 2026).

How the values were obtained:
Assay type in all cases: cell-based
[1] = tested on: HTT mRNA; experiment: Gene panel canonical junction qPCR assay, decrease in CJ mRNA, Table 3; details: decrease in canonical junction (CJ) mRNA, gene panel qPCR, Table 3
How it was run: (§1)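 A673 cells were plated, left to adhere for 24 h, then dosed; K562 cells were plated in 96- or 384-well format and dosed directly. Both were incubated 24 h at 37 °C with an 11-point 3-fold series (top 10 uM final). Canonical junction mRNA was then read by cDNA synthesis and qPCR.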

[2] = tested on: MYB mRNA; experiment: as above; details: decrease in canonical junction (CJ) mRNA, gene panel qPCR, Table 3
How it was run: as §1

[3] = tested on: SMN2 mRNA; experiment: as above; details: decrease in canonical junction (CJ) mRNA, gene panel qPCR, Table 3
How it was run: as §1

[4] = tested on: SH-SY5Y (human neuroblastoma) cells; experiment: Cell viability, Cell Titer Glo 2.0 assay; details: read-out: Viability SHSY5Y.3 GI50
How it was run: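 SH-SY5Y neuroblastoma cells are exposed to test compounds for 72 hours at 37 °C and 5% CO2, with final DMSO held at 0.1%. Cell viability is then measured with the CellTiter-Glo 2.0 assay.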

IC50 [1]	IC50 [2]	IC50 [3]	GI50 [4]	SMILES
1 to 10 µM	0.1 to 1 µM	< 0.1 µM	1 to 10 µM	CO[C@H]1C[C@@H](N[C@H]2CCN(c3ccc(C(=O)Nc4cc(F)c5nc(C)cn5c4)c4nn(C)cc34)C2)C1 [Compound 277, N-(8-fluoro-2-methylimidazo[1,2-a]pyridin-6-yl)-4-((S)-3-(((1s,3R)-3-methoxy-cyclobutyl)amino)pyrrolidin-1-yl)-2-methyl-2H-indazole-7-carboxamide]
1 to 10 µM	0.1 to 1 µM	0.1 to 1 µM	1 to 10 µM	Cc1cn2cc(NC(=O)c3ccc(N4C[C@@H](C)N[C@@H](C)C4)c4[nH]cnc34)cc(F)c2n1 [Compound 220, 7-[(3R,5S)-3,5-dimethylpiperazin-1-yl]-N-(8-fluoro-2-methyl-imidazo[1,2-a]pyridin-6-yl)-1H-1,3-benzodiazole-4-carboxamide]
< 0.1 µM	< 0.1 µM	< 0.1 µM	< 0.1 µM	CNC1(C)CCN(c2cc(F)c(C(=O)Nc3cn4cc(C)nc4c(F)c3OC)c3nn(C)cc23)CC1 [Compound 180, 6-fluoro-N-(8-fluoro-7-methoxy-2-methyl-imidazo[1,2-a]pyridin-6-yl)-2-methyl-4-[4-methyl-4-(methylamino)-1-piperidyl]indazole-7-carboxamide]
1 to 10 µM	1 to 10 µM	0.1 to 1 µM	> 10 µM	COCC1(N[C@H]2CCN(c3ccc(C(=O)Nc4cc(F)c5nc(C)cn5c4)c4nn(C)cc34)C2)CC1 [Compound 118, (S)—N-(8-fluoro-2-methylimidazo[1,2-a]pyridin-6-yl)-4-(3-((1-(methoxymethyl)cyclopropyl)amino)pyrrolidin-1-yl)-2-methyl-2H-indazole-7-carboxamide]
> 10 µM	1 to 10 µM	1 to 10 µM	0.1 to 1 µM	CN[C@@H]1CCN(c2ccc(C(=O)Nc3cc(F)c4nc(C)cn4c3)c3nn(C)cc23)[C@H]1C [Compound 155, N-(8-fluoro-2-methylimidazo-[1,2-a]pyridin-6-yl)-2-methyl-4-[(2S,3R)-2-methyl-3-(methylamino)-pyrrolidin-1-yl]indazole-7-carboxamide]
> 10 µM	> 10 µM	1 to 10 µM	> 10 µM	Cc1cn2cc(NC(=O)c3ccc(N4C[C@H](C)N[C@@H](C)C4)c4[nH]nnc34)cc(F)c2n1 [Compound 242, 7-[(3S,5S)-3,5-dimethylpiperazin-1-yl]-N-(8-fluoro-2-methyl-imidazo[1,2-a]pyridin-6-yl)-1H-benzotriazole-4-carboxamide]
0.1 to 1 µM	0.1 to 1 µM	< 0.1 µM	1 to 10 µM	CCNC1CCN(c2ccc(C(=O)Nc3cc(OC)c4nc(C)cn4c3)c3nn(C)cc23)CC1 [Compound 175, 4-(4-(ethylamino)piperidin-1-yl)-N-(8-methoxy-2-methyl-imidazo-[1,2-a]pyridin-6-yl)-2-methyl-2H-indazole-7-carboxamide]
> 10 µM	> 10 µM	1 to 10 µM	1 to 10 µM	CCNC1CCN(c2cc(F)c(C(=O)Nc3cc(F)c4nc(C)cn4c3)c3ccoc23)CC1 [Compound 195, 7-[4-(ethylamino)-1-piperidyl]-5-fluoro-N-(8-fluoro-2-methylimidazo[1,2-a]pyridin-6-yl)-benzofuran-4-carboxamide]
0.1 to 1 µM	0.1 to 1 µM	< 0.1 µM	1 to 10 µM	Cc1cn2cc(NC(=O)c3ccc(N4C[C@@H](C)N[C@@H](C)C4)c4nn(C)nc34)cc(F)c2n1 [Compound 252, 7-((3S,5R)-3,5-dimethyl-piperazin-1-yl)-N-(8-fluoro-2-methyl-imidazo[1,2-a]pyridin-6-yl)-2-methyl-2H-benzo[d][1,2,3]triazole-4-carboxamide 2,2,2-trifluoroacetate]
> 10 µM	> 10 µM	> 10 µM	> 10 µM	CN[C@H]1CCN(c2ccc(C(=O)Nc3cc(F)c4nc(C)cn4c3)c3c2nnn3C)C1 [Compound 160, N-(8-fluoro-2-methyl-imidazo[1,2-a]pyridin-6-yl)-3-methyl-7-[(3S)-3-(methylamino)-pyrrolidin-1-yl]benzotriazole-4-carboxamide]
0.1 to 1 µM	< 0.1 µM	< 0.1 µM	0.1 to 1 µM	Cc1cn2cc(NC(=O)c3ccc(N4CCC(NC5CC5C)CC4)c4cn(C)nc34)cc(F)c2n1 (stereo not drawn) [Compound 204, N-(8-fluoro-2-methyl-imidazo[1,2-a]pyridin-6-yl)-2-methyl-4-[4-[(2-methyl-cyclopropyl)amino]-1-piperidyl] indazole-7-carboxamide]
0.1 to 1 µM	< 0.1 µM	< 0.1 µM	0.1 to 1 µM	CCN[C@@H]1CCN(c2cc(O)c(C(=O)Nc3cc(F)c4nn(C)cc4c3)c3nn(C)cc23)C1 [Compound 294, 4-[(3R)-3-(ethylamino)-pyrrolidin-1-yl]-N-(7-fluoro-2-methyl-indazol-5-yl)-6-hydroxy-2-methyl-indazole-7-carboxamide]
